Assay results: patent publication US6699842B1, “Dominant negative deletion mutants of C-jun and their use in the prevention and treatment of cancer” (The United States of America as represented by the …, priority 1994, dated 2004)

Key:
Type in all cases: cell-based, mouse
JB6 P+ Cl 41.5a cells = assay: soft agar transformation assay, JB6 P+ Cl 41.5a cells; conditions: 3 ng/ml TPA, 14 days in 0.33% agar, FA 10^−9-10^−7 M, RA 10^−9-10^−6 M
Method: (§1) In order to test whether the same concentration ranges of inhibitors shown in FIGS. 2A and 2B to repress TPA-induced AP-1 activity could also block TPA-induced transformation, a soft agar transformation assay was carried out on JB6 P^+ Cl 41 (cross-hatched bar) or JB6 P^+ Cl 41.5a (closed bar) cells exposed in 0.33% agar for 14 days to 0.01% DMSO alone, 3 ng/ml TPA alone (TPA), 10^−7 or 10^−8 M FA alone (FA7 and FA8, respectively), 10^−6 M RA alone (RA6) 3 ng/ml TPA in the presence of 10^−7-10^−9 M FA (TFA7, TFA8, TFA9) or to 3 ng/ml TPA in 10^−6-10^−9 M retinoic acid (TRA6, TRA7, TRA8, TRA9). Treated cells were scored for colonies after 14 days in agar and transformation response was expressed as the number of soft agar colonies/10^4 suspended cells. […] In agreement with an earlier observation by De Benedetti et al. ((1991) Cancer Res., 51:1158-1164), the sensitivity of Cl 41.5a cells to antipromotion by RA appeared to be greater than that observed with the Cl 41 cells. More importantly, the concentration-dependent range of FA effective in blocking TPA-induced transformation appeared identical to that range which was active in blocking TPA-induced CAT activity by FA (10^−9 M to 10^−7 M FA, see TFA7, TFA8 and TFA9 in FIG. 2A). […]

JB6 P+ Cl 41 cells = assay: soft agar transformation assay, JB6 P+ Cl 41 cells; conditions: 3 ng/ml TPA, 14 days in 0.33% agar, FA 10^−9-10^−7 M, RA 10^−9-10^−6 M
Method: as §1

AP-1 = assay: CAT assay with stromelysin promoter reporter P750TRCAT (AP-1 dependent) in JB6 P+ Cl 41 cells; conditions: for inhibition of TPA-induced CAT activity: 8 hours
Excerpt: The plasmid constructs used in the following examples were as follows: P750TRCAT is a CAT reporter construct containing 750 bp of the rat stromelysin promoter driving the heterogolous gene chloramphenicol acetyl-transferase (CAT). This construct contains an AP-1 binding sequence at position −70 (Matrisian, L. M. et al. (1991) Am. J. Medic. Sci., 302: 157-162, Kerr, L. D. et al. (1988) Science., 242: 1424-1427, McDonnell, S. E. et al. (1990) Mol. Cell. Biol. 105 4284-4293). The mTRE-CAT reporter is a site-directed mutant with 2 point mutations in the AP-1 site (Matrisian, L. M. et al. (1991) Am. J. Medic. Sci., 302: 157-162) and the mPEA3-CAT reporter is a site-directed mutant in which point mutations in each of the PEA3 sites at position −208 to −200 and −191 to −199 of the stromelysin promoter were introduced using a protocol provided with the site-directed mutagenesis kit of Amersham Corp. (Arlington Heights, Ill.) and an oligonucleotide having SEQ ID NO.:1 GCAAGAAGCATTTCTTGG.
In brief, JB6 Cl 41 (P^+) cells transfected for 4-5 hours using a standard calcium phosphate transfection procedure (Sambrook, J. et al. (1989) “Molecular Cloning, A Laboratory Manual” Cold Spring Harbor Laboratory Press, Cold Spring Harbor, N.Y.) with 10 μg of one of three CAT reporter plasmid DNAs, P750TRCAT, mTRE-CAT or mPEA3-CAT and 10 μg of sheared genomic DNA isolated from Cl 41 cells were then changed to medium containing 2% fetal calf serum and twenty-four to forty-two hours later, were treated with either 0.1% of DMSO, 10 ng/ml of TPA or 10 ng/ml EGF for eight hours prior to preparation of total cell extracts. CAT enzyme activity was assayed using a diffusion-based CAT assay according to the protocol provided by the manufacturers (New England Nuclear, Del.). The results are expressed as the rate of accumulation of [^14C]-acetylated product relative to solvent controls (DMSO).
In order to determine whether TPA-induced CAT activity in JB6 P^+ cells is capable of being abolished, TPA induced CAT activity was measured in the presence of the known AP-1 inhibitors retinoic acid (RA) and fluocinolone acetonide (FA). In brief, JB6 P^+ Cl 41 cells were transfected with 10 μg of P750TRCAT and 10 μg of sheared genomic DNA from Cl 41 cells as in Example 1. 24-42 hours after transfection, cells were then exposed for 8 hours to either 0.1% DMSO, […] (TPA), 10^−7 M fluocinolone acetonide (FA) in the absence of 10 ng/ml TPA (FA7), 10^−9, 10^−8 and 10^−7 M FA in the presence of 10 ng/ml TPA (TFA9, TFA8, TFA7, respectively), 10^−5 M retinoic acid (RA) in the absence of 10 ng/ml TPA (RA5), or to 10^−7, 10^−6 and 10^−5 M RA in the presence of 10 ng/ml TPA (TRA7, TRA6, TRA5 respectively). Following the above treatments, total cell extracts were prepared and CAT enzyme activity was assayed as in Example 1. As before, the results are expressed as the rate of accumulation of ^14C-acetylated product relative to solvent controls.
In order to determine whether an overexpressed TAM67 protein could repress TPA-induced CAT activity in JB6 P^+ cells, eight TAM67 clonal transfectants (M1-M8) and three neo-only clonal transfectants (N1-N3) were transfected with 10 μg of P750TRCAT reporter plasmid using the standard calcium phosphate protocol described in. Example 1. Forty two hours after transfection with P750TRCAT, the cells were exposed to either 0.01% DMSO (closed bar, FIG. 5A), or 10 ng/ml TPA (crossed-hatched bar, FIG. 5A) or, to water (closed bar, FIG. 5B) or 10 ng/ml EGF (cross-hatched bar, FIG. 5B) for eight hours. Total cell extracts were then prepared from the treated cells and assayed for CAT activity as described in Example 1.

c-Jun = assay: immunoprecipitation and densitometry of c-Jun protein in stable JB6 transfectants; conditions: 10 ng/ml, fifteen hours, TAM67 or Neo-only transfectants
Method: Three TAM67 clonal transfectants (M4, M3, M6) and one neo-only clonal transfectant (N1) were treated for fifteen hours with either 10 ng/ml TPA (T), 10 ng/ml EGF (E), or 0.1% DMSO (D) prior to metabolic labelling for two hours with 0.2 mCi/ml ^35S -methionine (Amersham, Rockford, Ill.) (Sun, Y. et al. (1993) Mol. Carcinogenesis, 8: 49-57). Cellular lysates were then collected and immunoprecipitations using polyclonal rabbit c-jun antibody (AB-1 antibody, Oncogene Science) were carried out overnite at 4° C. (Sun et al. (1993)). These immunoprecipitates were then analyzed by electrophoresis on 12.5% SDS polyacrylamide gels and these gels are shown in FIG. 4.

## CC1(C)O[C@@H]2C[C@H]3[C@@H]4C[C@H](F)C5=CC(=O)C=C[C@]5(C)[C@@]4(F)[C@@H](O)C[C@]3(C)[C@]2(C(=O)CO)O1 [FA, Fluocinolone acetonide]
JB6 P+ Cl 41.5a cells
  TPA-induced transformation (soft agar colonies/10^4 suspended cells): blocked TPA-induced transformation in a concentration-dependent manner
JB6 P+ Cl 41 cells
  TPA-induced transformation (soft agar colonies/10^4 suspended cells): blocked TPA-induced transformation in a concentration-dependent manner
AP-1; 10^−9-10^−7 M FA with 10 ng/ml TPA, P750TRCAT
  inhibition of TPA-induced CAT activity: dose-dependent inhibition

## CC1=C(/C=C/C(C)=C/C=C/C(C)=C/C(=O)O)C(C)(C)CCC1 [RA, retinoic acid]
AP-1; 10^−7-10^−5 M RA with 10 ng/ml TPA, P750TRCAT
  inhibition of TPA-induced CAT activity: 90-100%

## CCCCCCCCCCCCCC(=O)O[C@@H]1[C@@H](C)[C@@]2(O)[C@@H](C=C(CO)C[C@]3(O)C(=O)C(C)=C[C@@H]23)[C@@H]2C(C)(C)[C@]12OC(C)=O [TPA, 12-O-tetradecanoyl phorbol 13-acetate]
c-Jun
  c-Jun protein levels (43 kDa band, densitometric analysis): no significant differences
AP-1; 10 ng/ml, eight hours, N1-N3 transfectants, P750TRCAT
  increase in AP-1 dependent CAT activity in neo-only transfectants: 3 to 4.5 fold
AP-1; 10 ng/ml, eight hours, P750TRCAT-transfected JB6 P+ Cl 41 cells
  CAT activity relative to uninduced cells, P750TRCAT reporter: about 2 fold
AP-1; 10 ng/ml, eight hours, mPEA3-CAT-transfected JB6 P+ Cl 41 cells (PEA3 sites mutated)
  CAT activity relative to uninduced cells, mPEA3-CAT reporter: about 2 fold
AP-1; 10 ng/ml, eight hours, mTRE-CAT-transfected cells (AP-1 binding site mutated)
  inducibility of CAT activity, mTRE-CAT reporter: loss of inducibility
